Values quoted from earlier work as cited in US20120321577A1, “Skin-whitening composition containing tyrosinase inhibitor” (priority 2011, published 2012).

Conditions: conventionally

NC[C@H]1CC[C@H](C(=O)O)CC1 [tranexamic acid]
concentration needed to give whitening effect: higher than 3%
